Test results reported in US8859569B2, “Substituted annellated pyrimidines and use thereof” (Bayer Pharma Aktiengesellschaft, priority 2011, dated 2014).

Tests used:
[1] = molecular target: T1, recombinant guanylate cyclase reporter cell line (Rattus norvegicus, UniProt P19686+P20595); experiment: Action on recombinant guanylate cyclase reporter cell line; format: cell-based
T1 construct: expressed in transfected cells
T1 sequence (P20595 1-619): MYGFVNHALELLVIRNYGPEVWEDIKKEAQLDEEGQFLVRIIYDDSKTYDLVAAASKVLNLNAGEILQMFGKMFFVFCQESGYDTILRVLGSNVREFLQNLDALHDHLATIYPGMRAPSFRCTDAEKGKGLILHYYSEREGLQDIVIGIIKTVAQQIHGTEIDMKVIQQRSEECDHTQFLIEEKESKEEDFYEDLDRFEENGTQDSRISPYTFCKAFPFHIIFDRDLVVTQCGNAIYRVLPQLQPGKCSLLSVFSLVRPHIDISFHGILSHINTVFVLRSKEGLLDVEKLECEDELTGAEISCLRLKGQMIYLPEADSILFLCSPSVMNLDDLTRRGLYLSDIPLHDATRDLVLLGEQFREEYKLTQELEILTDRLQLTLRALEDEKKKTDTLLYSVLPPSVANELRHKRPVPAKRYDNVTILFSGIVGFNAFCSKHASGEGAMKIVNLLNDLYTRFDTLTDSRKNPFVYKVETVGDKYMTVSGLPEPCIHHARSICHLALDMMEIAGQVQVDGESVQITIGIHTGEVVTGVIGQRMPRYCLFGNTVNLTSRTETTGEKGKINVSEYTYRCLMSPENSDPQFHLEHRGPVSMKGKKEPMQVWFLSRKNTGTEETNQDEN
T1 sequence (P19686 1-690): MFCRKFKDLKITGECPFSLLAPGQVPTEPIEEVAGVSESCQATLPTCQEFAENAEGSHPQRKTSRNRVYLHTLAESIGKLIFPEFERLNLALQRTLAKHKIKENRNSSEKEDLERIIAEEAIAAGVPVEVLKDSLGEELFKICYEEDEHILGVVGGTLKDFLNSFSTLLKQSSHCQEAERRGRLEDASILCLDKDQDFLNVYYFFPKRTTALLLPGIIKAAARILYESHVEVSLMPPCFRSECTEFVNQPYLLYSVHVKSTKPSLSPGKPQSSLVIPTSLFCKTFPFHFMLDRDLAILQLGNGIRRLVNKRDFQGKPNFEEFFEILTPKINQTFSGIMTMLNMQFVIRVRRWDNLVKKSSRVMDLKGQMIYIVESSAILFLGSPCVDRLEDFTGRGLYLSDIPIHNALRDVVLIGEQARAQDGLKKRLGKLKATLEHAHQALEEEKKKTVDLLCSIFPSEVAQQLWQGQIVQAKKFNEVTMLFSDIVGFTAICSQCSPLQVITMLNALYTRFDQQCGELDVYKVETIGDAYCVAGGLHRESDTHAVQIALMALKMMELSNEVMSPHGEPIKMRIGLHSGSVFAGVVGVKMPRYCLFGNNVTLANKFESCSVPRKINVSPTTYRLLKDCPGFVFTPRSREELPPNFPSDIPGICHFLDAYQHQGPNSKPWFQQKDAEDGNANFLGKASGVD
Description: B-2. Action on Recombinant Guanylate Cyclase Reporter Cell Line
The cellular action of the compounds according to the invention is determined on a recombinant guanylate cyclase reporter cell line, as described in F. Wunder et al., Anal. Biochem. 339, 104-112 (2005).

[2] = molecular target: T2, human phosphodiesterase 5 (PDE-5) (Homo sapiens, UniProt O76074); experiment: Inhibition of human phosphodiesterase 5 (PDE-5), SPA assay; format: biochemical; conditions: PDE-5 preparation from human platelets, [8-3H]cGMP substrate
T2 construct: PDE-5 preparations are obtained from human platelets by lysis; from tissue; host or cells: human platelets
Description: B-6. Inhibition of Human Phosphodiesterase 5 (PDE-5)
PDE-5 preparations are obtained from human platelets by lysis (Microfluidizer®, 800 bar, 3 passages), followed by centrifugation (75000 g, 60 min, 4° C.) and ion-exchange chromatography of the supernatant on a Mono Q 10/10 column (linear sodium chloride gradient, elution with a 0.2-0.3M solution of sodium chloride in buffer (20 mM Hepes pH 7.2, 2 mM magnesium chloride). Fractions that have PDE-5 activity are combined (PDE-5 preparation) and stored at −80° C.
For determining their in-vitro action on human PDE-5, the test substances are dissolved in 100% DMSO and serial dilutions are prepared. Typically, dilution series (1:3) from 200 μM to 0.091 μM are prepared (resultant final concentrations in the test: 4 μM to 0.0018 μM). In each case 2 μL of the diluted solutions of the substance are put in the wells of microtitre plates (Isoplate-96/200W; Perkin-Elmer). Then 50 μL of a dilution of the PDE-5 preparation described above is added. The dilution of the PDE-5 preparation is selected so that during subsequent incubation less than 70% of the substrate is reacted (typical dilution: 1:100; dilution buffer: 50 mM Tris/hydrochloric acid pH 7.5, 8.3 mM magnesium chloride, 1.7 mM EDTA, 0.2% BSA). The substrate [8-^3H]cyclic guanosine-3′,5′-monophosphate (1 μCi/μL; Perkin-Elmer) is diluted 1:2000 with assay buffer (50 mM Tris/hydrochloric acid pH 7.5, 8.3 mM magnesium chloride, 1.7 mM EDTA) to a concentration of 0.0005 μCi/μL. The enzyme reaction is finally started by adding 50 μL (0.025 μCi) of the diluted substrate. The test preparations are incubated for 60 min at room temperature and the reaction is stopped by adding 25 μL of a suspension of 18 mg/mL of Yttrium Scintillation Proximity Beads in water (phosphodiesterase beads for SPA assays, RPNQ 0150, Perkin-Elmer). The microtitre plates are sealed with film and left to stand for 60 min at room temperature. Then the plates are measured for 30 s per well in a Microbeta scintillation counter (Perkin-Elmer). IC50 values are determined on the basis of the graphs plotted of the substance concentration versus the percentage PDE-5 inhibition.

Row | SMILES | MEC (minimal effective concentration) [1] | IC50 [2]
1 | CC1(C)C(=O)Nc2nc(-c3nn(Cc4ccccc4F)c4ncccc34)nc(NC3CCOC3)c21 (racemic) [Example 49, 2-[1-(2-fluorobenzyl)-1H-pyrazolo[3,4-b]pyridin-3-yl]-5,5-dimethyl-4-(tetrahydrofuran-3-ylamino)-5,7-dihydro-6H-pyrrolo[2,3-d]pyrimidin-6-one] | 0.3 μm | 
2 | Cn1nccc1CNc1nc(-c2nn(Cc3ccccc3F)c3ncccc23)nc2c1C(C)(C)C(=O)N2 [Example 40, 2-[1-(2-Fluorobenzyl)-1H-pyrazolo[3,4-b]pyridin-3-yl]-5,5-dimethyl-4-{[(1-methyl-1H-pyrazol-5-yl)methyl]amino}-5,7-dihydro-6H-pyrrolo[2,3-d]pyrimidin-6-one] | 0.1 μm | 0.011 µM
3 | Cc1ccc(CNc2nc(-c3nn(Cc4ccccc4F)c4ncccc34)nc3c2C(C)(C)C(=O)N3)o1 [Example 41, 2-[1-(2-fluorobenzyl)-1H-pyrazolo[3,4-b]pyridin-3-yl]-5,5-dimethyl-4-{[(5-methylfuran-2-yl)methyl]amino}-5,7-dihydro-6H-pyrrolo[2,3-d]pyrimidin-6-one] | 0.01 μm | 0.17 µM
4 | CC1(C)C(=O)Nc2nc(-c3nn(Cc4ccccc4F)c4ncccc34)nc(NCc3ccccc3F)c21 [Example 42, 4-[(2-fluorobenzyl)amino]-2-[1-(2-fluorobenzyl)-1H-pyrazolo[3,4-b]pyridin-3-yl]-5,5-dimethyl-5,7-dihydro-6H-pyrrolo[2,3-d]pyrimidin-6-one] | 0.1 μm | 0.12 µM
5 | CC1(C)C(=O)Nc2nc(-c3nn(Cc4ccccc4F)c4ncccc34)nc(NCC3CC3)c21 [Example 43, 4-[(cyclopropylmethyl)amino]-2-[1-(2-fluorobenzyl)-1H-pyrazolo[3,4-b]pyridin-3-yl]-5,5-dimethyl-5,7-dihydro-6H-pyrrolo[2,3-d]pyrimidin-6-one] | 0.03 μm | 0.41 µM
6 | CC(=O)NCCNc1nc(-c2nn(Cc3ccccc3F)c3ncccc23)nc2c1C(C)(C)C(=O)N2 [Example 44, N-[2-({2-[1-(2-fluorobenzyl)-1H-pyrazolo[3,4-b]pyridin-3-yl]-5,5-dimethyl-6-oxo-6,7-dihydro-5H-pyrrolo[2,3-d]pyrimidin-4-yl}amino)ethyl]acetamide] | 0.1 μm | 0.086 µM
7 | CC1(C)C(=O)Nc2nc(-c3nn(Cc4ccccc4F)c4ncccc34)nc(NC[C@@H]3CCOC3)c21 [Example 45, 2-[1-(2-fluorobenzyl)-1H-pyrazolo[3,4-b]pyridin-3-yl]-5,5-dimethyl-4-[(tetrahydrofuran-3-ylmethyl)amino]-5,7-dihydro-6H-pyrrolo[2,3-d]pyrimidin-6-one] | 0.1 μm | 0.078 µM
8 | CC1(C)C(=O)Nc2nc(-c3nn(Cc4ccccc4F)c4ncccc34)nc(N3C[C@@H]4C[C@H]3CO4)c21 [Example 46, 2-[1-(2-fluorobenzyl)-1H-pyrazolo[3,4-b]pyridin-3-yl]-5,5-dimethyl-4-[(1S,4S)-2-oxa-5-azabicyclo[2.2.1]hept-5-yl]-5,7-dihydro-6H-pyrrolo[2,3-d]pyrimidin-6-one] | 0.1 μm | 0.035 µM
9 | CC1(C)C(=O)Nc2nc(-c3nn(Cc4ccccc4F)c4ncccc34)nc(N3CCCCC3)c21 [Example 54, 2-[1-(2-fluorobenzyl)-1H-pyrazolo[3,4-b]pyridin-3-yl]-5,5-dimethyl-4-(piperidin-1-yl)-5,7-dihydro-6H-pyrrolo[2,3-d]pyrimidin-6-one] | 0.03 μm | 
10 | C[C@@H](O)CNc1nc(-c2nn(Cc3ccccc3F)c3ncccc23)nc2c1C(C)(C)C(=O)N2 [Example 57, 2-[1-(2-fluorobenzyl)-1H-pyrazolo[3,4-b]pyridin-3-yl]-4-[(2-hydroxypropyl)amino]-5,5-dimethyl-5,7-dihydro-6H-pyrrolo[2,3-d]pyrimidin-6-one] |  | 0.016 µM
11 | CC1(CNc2nc(-c3nn(Cc4ccccc4F)c4ncccc34)nc3c2C(C)(C)C(=O)N3)COC1 [Example 67, 2-[1-(2-fluorobenzyl)-1H-pyrazolo[3,4-b]pyridin-3-yl]-5,5-dimethyl-4-{[(3-methyloxetan-3-yl)methyl]amino}-5,7-dihydro-6H-pyrrolo[2,3-d]pyrimidin-6-one] | 0.03 μm | 
12 | CC1(C)C(=O)Nc2nc(-c3nn(Cc4ccccc4F)c4ncccc34)nc(NCc3ccc(F)cc3)c21 [Example 77, 4-[(4-fluorobenzyl)amino]-2-[1-(2-fluorobenzyl)-1H-pyrazolo[3,4-b]pyridin-3-yl]-5,5-dimethyl-5,7-dihydro-6H-pyrrolo[2,3-d]pyrimidin-6-one] | 0.1 μm | 
13 | C[C@H](Nc1nc(-c2nn(Cc3ccccc3F)c3ncccc23)nc2c1C(C)(C)C(=O)N2)C(N)=O [Example 79, N2-{2-[1-(2-fluorobenzyl)-1H-pyrazolo[3,4-b]pyridin-3-yl]-5,5-dimethyl-6-oxo-6,7-dihydro-5H-pyrrolo[2,3-d]pyrimidin-4-yl}-L-alaninamide] | 0.1 μm | 
14 | CC1(C)C(=O)Nc2nc(-c3nn(Cc4ccccc4F)c4ncccc34)nc(NCC3CCCC3)c21 [Example 80, 4-[(cyclopentylmethyl)amino]-2-[1-(2-fluorobenzyl)-1H-pyrazolo[3,4-b]pyridin-3-yl]-5,5-dimethyl-5,7-dihydro-6H-pyrrolo[2,3-d]pyrimidin-6-one] | 0.03 μm | 
15 | CC1(C)C(=O)Nc2nc(-c3nn(Cc4ccccc4F)c4ncccc34)nc(N3CCNC(=O)C3)c21 [Example 82, 2-[1-(2-fluorobenzyl)-1H-pyrazolo[3,4-b]pyridin-3-yl]-5,5-dimethyl-4-(3-oxopiperazin-1-yl)-5,7-dihydro-6H-pyrrolo[2,3-d]pyrimidin-6-one] | 0.1 μm | 
16 | CCOC(=O)C1(C)C(=O)Nc2nc(-c3nn(Cc4ccccc4F)c4ncccc34)nc(O)c21 (centres unmarked) [Example 101, Ethyl-2-[1-(2-fluorobenzyl)-1H-pyrazolo[3,4-b]pyridin-3-yl]-4-hydroxy-5-methyl-6-oxo-6,7-dihydro-5H-pyrrolo[2,3-d]pyrimidine-5-carboxylate] |  | 0.87 µM
